# Measurements published in US20260285850A1, “SUBSTITUTED OXAZOLIDINONES AND IMIDAZOLINONES AS HERBICIDES” (FMC CORPORATION, priority 2023, published 2026).
# Tests used:
# Assay type in all cases: in vivo
# [1] = tested on: wheat (Triticum aestivum); assay: Test A preemergence soil spray, visual injury rating 0-100; settings: 10 days, 0 = no effect, 100 = complete control
# Procedure, shortened: (§1)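 Compounds formulated in a non-phytotoxic solvent with surfactant are sprayed onto soil of freshly planted loam-sand pots ahead of emergence, or onto emerged plants 2-10 cm tall. After a 10-day greenhouse period, each species is scored visually for injury against untreated controls.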
# [2] = tested on: oat, wild (wild oat, Avena fatua); assay: as above; settings: 10 days, 0 = no effect, 100 = complete control
# Procedure, shortened: as §1
# soybean (Glycine max) [3] = assay: as above; settings: 10 days, 0 = no effect, 100 = complete control
# Procedure, shortened: as §1
# [4] = tested on: palmer (palmer amaranth, palmer pigweed, Amaranthus palmeri); assay: as above; settings: 10 days, 0 = no effect, 100 = complete control
# Procedure, shortened: as §1
# [5] = tested on: green foxtail (Setaria viridis); assay: as above; settings: 10 days, 0 = no effect, 100 = complete control
# Procedure, shortened: as §1
# corn (Zea mays) [6] = assay: as above; settings: 10 days, 0 = no effect, 100 = complete control
# Procedure, shortened: as §1
# [7] = tested on: barnyardgrass (Echinochloa crus-galli); assay: as above; settings: 10 days, 0 = no effect, 100 = complete control
# Procedure, shortened: as §1
# [8] = tested on: ragweed (common ragweed, Ambrosia artemisiifolia); assay: as above; settings: 10 days, 0 = no effect, 100 = complete control
# Procedure, shortened: as §1
# [9] = tested on: blackgrass (Alopecurus myosuroides); assay: as above; settings: 10 days, 0 = no effect, 100 = complete control
# Procedure, shortened: as §1
# [10] = tested on: ryegrass, Italian (italian ryegrass, Lolium multiflorum); assay: as above; settings: 10 days, 0 = no effect, 100 = complete control
# Procedure, shortened: as §1
# kochia (Bassia scoparia) [11] = assay: as above; settings: 10 days, 0 = no effect, 100 = complete control
# Procedure, shortened: as §1
# [12] = tested on: barnyardgrass (Echinochloa crusgalli); assay: Test B flooded paddy test, visual plant response rating 0-100; settings: 250 g ai/ha, Flood, applied to paddy water, evaluated after 13 days
# Procedure, shortened: (§2)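 In this flooded assay, 2-leaf seedlings received compound through the water layer, kept at 3 cm over the soil. Plants were held 13 days in a greenhouse and then visually compared with control pots.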
# rice (Oryza sativa) = assay: as above; settings: 250 g ai/ha, Flood, applied to paddy water, evaluated after 13 days
# Procedure, shortened: as §2
# [13] = tested on: ducksalad (Heteranthera limosa); assay: as above; settings: 250 g ai/ha, Flood, applied to paddy water, evaluated after 13 days
# Procedure, shortened: as §2
# [14] = tested on: sedge, umbrella (small-flower umbrella sedge, Cyperus difformis); assay: as above; settings: 250 g ai/ha, Flood, applied to paddy water, evaluated after 13 days
# Procedure, shortened: as §2
# [15] = tested on: wheat (Triticum aestivum); assay: Test A postemergence application, visual injury rating 0-100; settings: 10 days
# Procedure, shortened: as §1
# [16] = tested on: oat, wild (wild oat, Avena fatua); assay: as above; settings: 10 days
# Procedure, shortened: as §1
# soybean (Glycine max) [17] = assay: as above; settings: 10 days
# Procedure, shortened: as §1
# [18] = tested on: horseweed (Erigeron canadensis); assay: as above; settings: 10 days
# Procedure, shortened: as §1
# [19] = tested on: palmer (palmer amaranth, palmer pigweed, Amaranthus palmeri); assay: as above; settings: 10 days
# Procedure, shortened: as §1
# [20] = tested on: green foxtail (Setaria viridis); assay: as above; settings: 10 days
# Procedure, shortened: as §1
# [21] = tested on: galium (catchweed bedstraw, Galium aparine); assay: as above; settings: 10 days
# Procedure, shortened: as §1
# corn (Zea mays) [22] = assay: as above; settings: 10 days
# Procedure, shortened: as §1
# [23] = tested on: barnyardgrass (Echinochloa crus-galli); assay: as above; settings: 10 days
# Procedure, shortened: as §1
# [24] = tested on: ragweed (common ragweed, Ambrosia artemisiifolia); assay: as above; settings: 10 days
# Procedure, shortened: as §1
# [25] = tested on: blackgrass (Alopecurus myosuroides); assay: as above; settings: 10 days
# Procedure, shortened: as §1
# [26] = tested on: ryegrass, Italian (italian ryegrass, Lolium multiflorum); assay: as above; settings: 10 days
# Procedure, shortened: as §1
# kochia (Bassia scoparia) [27] = assay: as above; settings: 10 days
# Procedure, shortened: as §1
# [28] = 31 g ai/ha, postemergence, 0 = no effect, 100 = complete control
# [29] = Postemergence, 125 g ai/ha, 0 is no effect, 100 is complete control
smiles,measurement,setting,value
CC(C)COC(=O)C1=CCC(NC(=O)C2(C)CN(c3cc(F)cc(F)c3)C(=O)O2)C1 (stereo not shown) [Compound 16],Wheat plant response rating (0-100),[1]; 31 g ai/ha,50
same,Wheat plant response rating (0 to 100 scale),[1]; 125 g ai/ha,80
same,"Oat, Wild plant response rating (0-100)",[2]; 31 g ai/ha,0
same,"Oat, Wild plant response rating (0 to 100 scale)",[2]; 125 g ai/ha,50
same,Soybean plant response rating (0-100),soybean (Glycine max) [3]; 31 g ai/ha,0
same,Soybean plant response rating (0 to 100 scale),soybean (Glycine max) [3]; 125 g ai/ha,0
same,"Amaranth, Palmer plant response rating (0-100)",[4]; 31 g ai/ha,0
same,"Amaranth, Palmer plant response rating (0 to 100 scale)",[4]; 125 g ai/ha,80
same,"Foxtail, Green plant response rating (0-100)",[5]; 31 g ai/ha,0
same,"Foxtail, Green plant response rating (0 to 100 scale)",[5]; 125 g ai/ha,100
same,Corn plant response rating (0-100),corn (Zea mays) [6]; 31 g ai/ha,20
same,Corn plant response rating (0 to 100 scale),corn (Zea mays) [6]; 125 g ai/ha,70
same,Barnyardgrass plant response rating (0-100),[7]; 31 g ai/ha,0
same,Barnyardgrass plant response rating (0 to 100 scale),[7]; 125 g ai/ha,90
same,Ragweed plant response rating (0-100),[8]; 31 g ai/ha,0
same,Ragweed plant response rating (0 to 100 scale),[8]; 125 g ai/ha,20
same,Blackgrass plant response rating (0-100),[9]; 31 g ai/ha,0
same,Blackgrass plant response rating (0 to 100 scale),[9]; 125 g ai/ha,40
same,"Ryegrass, Italian plant response rating (0-100)",[10]; 31 g ai/ha,40
same,"Ryegrass, Italian plant response rating (0 to 100 scale)",[10]; 125 g ai/ha,90
same,Kochia plant response rating (0-100),kochia (Bassia scoparia) [11]; 31 g ai/ha,0
same,Kochia plant response rating (0 to 100 scale),kochia (Bassia scoparia) [11]; 125 g ai/ha,40
same,"Plant response rating, Barnyardgrass (0 to 100 scale, 0 is no effect and 100 is complete control)",[12],65
same,"Plant response rating, Rice (0 to 100 scale, 0 is no effect and 100 is complete control)",rice (Oryza sativa),65
same,"Plant response rating, Ducksalad (0 to 100 scale, 0 is no effect and 100 is complete control)",[13],70
same,"Plant response rating, Sedge, Umbrella (0 to 100 scale, 0 is no effect and 100 is complete control)",[14],65
same,Wheat plant response rating (0-100),[15]; [28],80
same,Wheat plant response rating (0 to 100 scale),[15]; [29],90
same,"Oat, Wild plant response rating (0-100)",[16]; [28],60
same,"Oat, Wild plant response rating (0 to 100 scale)",[16]; [29],90
same,Soybean plant response rating (0-100),soybean (Glycine max) [17]; [28],60
same,Soybean plant response rating (0 to 100 scale),soybean (Glycine max) [17]; [29],60
same,Horseweed plant response rating (0-100),[18]; [28],0
same,Horseweed plant response rating (0 to 100 scale),[18]; [29],20
same,"Amaranth, Palmer plant response rating (0-100)",[19]; [28],20
same,"Amaranth, Palmer / Pigweed, Palmer plant response rating (0 to 100 scale)",[19]; [29],70
same,"Foxtail, Green plant response rating (0-100)",[20]; [28],90
same,"Foxtail, Green plant response rating (0 to 100 scale)",[20]; [29],90
same,Galium plant response rating (0-100),[21]; [28],90
same,Galium plant response rating (0 to 100 scale),[21]; [29],90
same,Corn plant response rating (0-100),corn (Zea mays) [22]; [28],90
same,Corn plant response rating (0 to 100 scale),corn (Zea mays) [22]; [29],100
same,Barnyardgrass plant response rating (0-100),[23]; [28],100
same,Barnyardgrass plant response rating (0 to 100 scale),[23]; [29],100
same,Ragweed plant response rating (0-100),[24]; [28],40
same,Ragweed plant response rating (0 to 100 scale),[24]; [29],50
same,Blackgrass plant response rating (0-100),[25]; [28],90
same,Blackgrass plant response rating (0 to 100 scale),[25]; [29],100
same,"Ryegrass, Italian plant response rating (0-100)",[26]; [28],70
same,"Ryegrass, Italian plant response rating (0 to 100 scale)",[26]; [29],90
same,Kochia plant response rating (0-100),kochia (Bassia scoparia) [27]; [28],70
same,Kochia plant response rating (0 to 100 scale),kochia (Bassia scoparia) [27]; [29],70
